Reference: PMC9691367, “The PROTAC selectively degrading Bcl-xL represents a novel Hedgehog pathway inhibitor with capacity of combating resistance to Smoothened inhibitors while sparing bone growth” (Theranostics, 2022)
Peptide text beside a SMILES is read from it. * marks the point of attachment. Cbz = O=C(OCc1ccccc1)*

Columns and labels:
NF-κB signaling pathway = assay: NF-κB luciferase reporter assay in 293T cells; assay type: cell-based; conditions: TNF-α 10 ng/mL, 6 h, SIAIS361034 10 μM, BAY 11-7082 20 μM
Experimental: (§1) Cells seeded in 96-well plates were treated with various treatments as indicated. The luciferase activity in the cell lysates was measured using Dual-Luciferase Reporter Assay System (Promega, Madison, WI, USA) according to the manufacturer's instructions in a luminometer (Molecular Devices, Sunnyvale, CA). The firefly luciferase values were normalized to Renilla values. […]
Data represent mean ± SD (n = 3). (B) NF-κB luciferase analysis of the effect of SIAIS361034 on NF-κB signaling pathway in 293T cells.The 293T cells were transfected with NF-κB luciferase reporter and Renilla-TK plasmids and […]
μM) for 6 h. Data represent mean ± SD (n = 3). […]
(§2) Data represent mean ± SD (n = 3).
(§3) (1 picture or pasted object on this page, not shown here)

Wnt signaling pathway = assay: TCF/LEF luciferase reporter assay in LS174T cells; assay type: cell-based; conditions: PGE2 1 μM, 24 h, SIAIS361034 10 μM, H-89 20 μM
Experimental: as §1
μM) for 6 h. Data represent mean ± SD (n = 3). (C) TCF/LEF luciferase analysis of the effect of SIAIS361034 on Wnt signaling pathway in LS174T cells. The LS174T cellswere transfected with TCF/LEF luciferase reporter and Renilla-TK plasmids and […]
as §2, §3

platelets = assay: Platelet toxicity assay in C57BL/6J mice; assay type: in vivo, mouse; conditions: SIAIS361034 single i.p. 50 and 100 mg/kg, ABT-263 single p.o. 100 mg/kg, 8 h and 24 h
Description: Blood was collected at different time points via retro-orbital bleeding in anticoagulation tube. Platelets or different blood cells were enumerated using BM800 blood analyzer (Bowlinman Sunshine).

Bcl-xL = target: T1, Bcl-xL (Mus musculus, UniProt Q64373); assay: Western blot of Bcl-xL degradation in NIH-3T3 cells; assay type: cell-based; conditions: for effect of pretreatment on SIAIS361034-induced Bcl-xL degradation: pretreated 2 h with ABT-263 1 µM, Pomalidomide 10 µM or MG132 1 µM, then SIAIS361034 24 h
T1 construct: endogenous in cells; host or cells: NIH-3T3
Experimental: (§4) Cells were lysed in cell lysis buffer (50 mM Tris pH 8.0, 150 mM NaCl, 10% glycerol, 1 mM EDTA, 50 mM NaF, and 0.1% NP-40) supplemented with protease and phosphatase inhibitors. Total protein extracts of tissues were generated in radioimmunoprecipitation (RIPA) assay lysis buffer containing complete protease and phosphatase inhibitor cocktail. Protein content was quantified using the Pierce BCA Protein Assay Kit (#23225, Thermo Fisher Scientific). The proteins were separated by SDS-PAGE, electrophoretically transferred to polyvinylidene difluoride (PVDF) blotting membranes (#LC2002, Thermo Fisher Scientific), and subjected to routine immunoblot analysis with primary antibodies as follows: anti-Bcl-2 (#15071), anti-Mcl-1 (#94296), anti-VHL (#68547), anti-CRBN (#71810), and anti-Sufu (#2522) were obtained from Cell Signaling Technology (Danvers, Massachusetts, USA); anti-Bcl-xL (#ab32370), anti-Gli1 (#ab134906), and anti-Smoothened (#ab236465) were obtained from Abcam (Cambridge, CB2 0AX, UK); anti-GAPDH (#60004-1-Ig) and anti-β-tubulin (#10094-1-AP) were purchased from Proteintech Group, Inc. (Rosemont, IL 60018, USA). The results were quantified by densitometry using ImageJ software (NIH).

[1] = system: Hh pathway (Gli-luciferase) in light II cells; assay: Dual luciferase reporter assay, Gli-luciferase provoked by SAG in light II cells; assay type: cell-based; conditions: SAG 100 nM; for effect of pretreatment on Gli-luciferase activity suppressed by SIAIS361034: pretreated 2 h with MG132 1 µM or Pomalidomide 10 µM, then SIAIS361034 1 µM
Experimental: (§5) Cells seeded in 96-well plates were treated with various treatments as indicated. The luciferase activity in the cell lysates was measured using Dual-Luciferase Reporter Assay System (Promega, Madison, WI, USA) according to the manufacturer's instructions in a luminometer (Molecular Devices, Sunnyvale, CA). The firefly luciferase values were normalized to Renilla values.

[2] = system: Hh pathway (Gli-luciferase) provoked by Gli2; assay: Dual luciferase reporter assay, Hh activity initiated by ectopic Gli2-HA in light II cells; assay type: cell-based; conditions: for IC50: ectopic Gli2-HA, 36 h
Description: (§6) The TCF/LEF luciferase reporter plasmid, NF-κB luciferase reporter plasmid, and TK-Renilla luciferase plasmid were purchased from Promega (Madison, WI, USA). Smo plasmid was purchased from Origene (Rockville, MD, USA). The Smo mutant plasmids were generated from wild type Smo plasmid using QuickChange Site-Directed Mutagenesis kit from Agilent (Santa Clara, CA, USA) and confirmed by sequencing. Information on Smo mutants plasmids is provided in Supplementary data 2. The Gli1 plasmid and Gli2-HA plasmid were obtained from Addgene (Cambridge, MA, USA). Transient transfections were performed by Lipofectamine 2000 reagent from Invitrogen (Grand Island, NY, USA) according to the manufacturer's instructions.
as §5

[3] = system: bone growth of young mice; assay: Bone growth of young mice (body weight, Micro-CT, H&E, IHC); assay type: in vivo, mouse; conditions: for body size: 5-week-old mice after treatment from P12 to P16; for femur length (Micro-CT, in words): mice at 6 weeks of age, treated P12 to P16; for levels of Bcl-xL in femurs (IHC): mice treated P12 to P16; for expression levels of Gli1 in femurs (IHC): mice treated P12 to P16, compared with Vehicle
Experimental: Skeleton Micro-CT images of mice were taken under anesthesia. The femurs were fixed and stored in 4% PFA at 4 °C. Mice and femurs were scanned using Inveon PET-CT (Siemens). Bone tissues were computed with Inveon Acquisition Workplace (IAW). Image data were visualized and analyzed by Inveon Viewer.
Femurs were fixed in 4% PFA and decalcified in 14% EDTA for 2 weeks at 4 °C. Bone tissues were embedded in paraffin. Thin sections were stained with hematoxylin and eosin (H&E) according to the manufacturer's instructions. For immunohistochemistry (IHC), paraffin-embedded sections of femurs were baked at 60 °C for 20 min, deparaffinized by xylene for 25 min, rehydrated through ethanol series, and incubated with citrate buffer at 95 °C for 20 min for antigen retrieval. Sections were incubated with the primary antibodies as indicated overnight at 4 °C, followed by goat anti-rabbit secondary antibody. The primary antibodies used in this study include Bcl-xL (1:2000, ab178844, Abcam) and Gli1 (1:100, 101156-T10, Sino Biological).

Gli1 = assay: Western blot of Gli1 in light II cells; assay type: cell-based; conditions: 1 µM
Experimental: as §4

[4] = system: hair growth and Hh pathway activity in skin; assay: Depilatory mouse model; assay type: in vivo
Experimental: For Depilatory model studies, male C57BL/6J mice (7 to 8 weeks of age) were purchased from Shanghai Lingchang Biotechnology Co. (Shanghai, China). After 2 days of acclimation, only healthy mice were used in the experiment. The back skin of the anesthetized mice was shaved and depilated using the depilatory Nair (Church & Dwight Co., Inc.). After 4 days, the depilated mice were randomized into groups for treatments as indicated. The back skin phenotypes were recorded by taking pictures every 3 days. Skin tissues were harvested 6 h after the last dosage to examining Gli1 mRNA expression as well as Gli1 and Bcl-xL protein levels.

[5] = system: medulloblastoma sensitive to Smo inhibitors; parameters: method as in PMID 19716296; conditions: GDC-0449 50 mg/kg; cited from earlier work
[6] = system: Hh pathway (Gli-luciferase) provoked by Smo WT / Smo mutants; assay: Dual luciferase reporter assay, Hh activity induced by ectopic Smo WT or Smo mutants in light II cells; assay type: cell-based; conditions: Smo WT, D473H, H231R, W281C, W535L, L412F, F460L, GDC-0449 10 μM (Figure S3B-D)
Description: as §6, §5

[7] = system: SmoA1 (Smo W539L) medulloblastoma tumor; assay: SmoA1 medulloblastoma allograft in nude mice; assay type: in vivo, mouse
Description: For in vivo SmoA1 MB allograft studies, SmoA1 spontaneous MB tumors were obtained from ND2:SmoA1 transgenic mice as previously described. Male nude mice (4 to 5 weeks of age) were purchased from Shanghai Lingchang Biotechnology Co. (Shanghai, China). Spontaneous tumors were harvested and subcutaneously allografted into nude mice. When the tumor volumes reached approximately 2000 mm^3, they were harvested and further subcutaneously allografted into nude mice. When the tumor volumes reached about 150 to 200 mm^3, the tumor-bearing mice were randomly assigned into vehicle and treatment groups. Mice were weighed every 3 days. Tumor size was measured once every 3 days using microcaliper. Tumor volume (V) was determined using the following formula: V = (L×W^2) ×0.5, where L is length, and W is width in mm. Tumor tissues were harvested 6 h after the last dosage to examining Gli1 mRNA expression and protein levels. SIAIS361034 for i.p. administration was formulated in 0.5% sodium carboxymethyl cellulose (CMC-Na). All in vivo studies above were approved by and conformed to the policies and regulations of the Animal Care and Use Committee of Fudan University, China.

T1 sequence (Q64373 whole entry): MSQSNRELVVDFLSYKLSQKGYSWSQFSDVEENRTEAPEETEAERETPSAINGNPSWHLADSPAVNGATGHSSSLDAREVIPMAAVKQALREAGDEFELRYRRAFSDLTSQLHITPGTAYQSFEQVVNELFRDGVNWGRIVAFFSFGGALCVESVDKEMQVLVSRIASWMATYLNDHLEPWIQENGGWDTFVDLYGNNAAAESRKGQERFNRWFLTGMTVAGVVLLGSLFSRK

Cc1ccc(S(=O)(=O)/C=C/C#N)cc1 [BAY 11-7082, reference compound]
NF-κB luciferase activity activated by TNF-α (NF-κB signaling pathway): significantly impeded

O=S(=O)(NCCNC/C=C/c1ccc(Br)cc1)c1cccc2cnccc12 [H-89, reference compound]
TCF/LEF luciferase activity (Wnt signaling) activated by PGE2 (Wnt signaling pathway): significantly inhibited

CC1(C)CCC(c2ccc(Cl)cc2)=C(CN2CCN(c3ccc(C(=O)NS(=O)(=O)c4ccc(N[C@H](CCN5CCOCC5)CSc5ccccc5)c(S(=O)(=O)C(F)(F)F)c4)cc3)CC2)C1 [ABT-263, reference compound]
number of platelets (platelets): severe thrombocytopenia
effect of pretreatment on SIAIS361034-induced Bcl-xL degradation (Bcl-xL): abolished the SIAIS361034-induced Bcl-xL degradation

CC(C)C[C@@H](C=O)NC(=O)[C@H](CC(C)C)NC(=O)[C@H](CC(C)C)NC(=O)OCc1ccccc1 [MG132, reference compound] (Cbz-Leu-Leu-Leu-aldehyde)
effect of pretreatment on SIAIS361034-induced Bcl-xL degradation (Bcl-xL): obviously abolished SIAIS361034-induced Bcl-xL degradation
effect of pretreatment on Gli-luciferase activity suppressed by SIAIS361034 [1]: abolished the suppressed Gli-luciferase activity

CN1C(=O)CCC(N2Cc3c(C#CCCCN4CCN(CCCNc5ccc(S(=O)(=O)NC(=O)c6ccc(N7CCN(CC8=C(c9ccc(Cl)cc9)CCC(C)(C)C8)CC7)cc6)cc5S(=O)(=O)C(F)(F)F)CC4)cccc3C2=O)C1=O (centres unmarked) [SIAIS361034NC]
Bcl-xL degradation (Bcl-xL; 1 µM, western blot): failed to degrade Bcl-xL
IC50 ([1]; 36 h, read-out: IC50 value inhibiting the Gli-luciferase activity provoked by SAG): 3.16 µM
IC50 [2]: 1.77 µM

Cc1ncsc1-c1ccc([C@H](C)NC(=O)[C@@H]2C[C@@H](O)CN2C(=O)[C@@H](NC(=O)CCCCCC(=O)N2CCN(CC[C@H](CSc3ccccc3)Nc3ccc(S(=O)(=O)NC(=O)c4ccc(N5CCN(CC6=C(c7ccc(Cl)cc7)CCC(C)(C)C6)CC5)cc4)cc3S(=O)(=O)C(F)(F)F)CC2)C(C)(C)C)cc1 [DT2216]
body size [3]: smaller body sizes
femur length (Micro-CT, in words) [3]: obvious shortening of the femur
levels of Bcl-xL in femurs (IHC) [3]: reduced
expression levels of Gli1 in femurs (IHC) [3]: significantly suppressed
rate of weight growth ([3]; young mice treated from P12 to P16): decelerated the rate of weight growth

Nc1cccc2c1C(=O)N(C1CCC(=O)NC1=O)C2=O (centres unmarked) [Pomalidomide, reference compound]
effect of pretreatment on SIAIS361034-induced Bcl-xL degradation (Bcl-xL): obviously abolished SIAIS361034-induced Bcl-xL degradation
effect of pretreatment on Gli-luciferase activity suppressed by SIAIS361034 [1]: abolished the suppressed Gli-luciferase activity

Cc1sc2c(c1C)C(c1ccc(Cl)cc1)=N[C@@H](CC(=O)OC(C)(C)C)c1nnc(C)n1-2 [JQ1, reference compound]
Gli1 protein level (Gli1): reduced Gli1 protein

CS(=O)(=O)c1ccc(C(=O)Nc2ccc(Cl)c(-c3ccccn3)c2)c(Cl)c1 [GDC-0449, reference compound]
body size [3]: smaller body sizes
femur length (Micro-CT, in words) [3]: obvious shortening of the femur
levels of Bcl-xL in femurs (IHC) [3]: No change
expression levels of Gli1 in femurs (IHC) [3]: significantly suppressed
hair growth during depilation-induced hair regeneration ([4]; male C57BL/6J mice, administered after 4 days of depilation): significantly retarded hair growth
Gli1 and Bcl-xL protein levels in skin tissues ([4]; skin harvested 6 h after the last dosage, western blot): no effect on the levels of Bcl-xL
TGI [5]: 100%
Hh activity provoked by wild type Smo and Smo mutants [6]: little appreciable effect
growth of SmoA1 tumors ([7]; nude mice, SIAIS361034 50 mg/kg, GDC-0449 50 mg/kg p.o.): obvious resistance
expression of Gli1 mRNA in tumor tissues ([7]; tumors harvested 6 h after the last dosage, RT-qPCR): no alteration
Hh activity evoked by ectopic expression of Gli2 [2]: no effect
IC50 [2]: > 10 µM
